Several values for one entry are separate records, joined by “and”; a condition that tells them apart may be missing. Equal entries are not always repeated. Inconclusive results and toxic doses are left out.
Test system: P388 leukemia ip, CD2F1 mice, survival T/C
Experiment: NCI In Vivo Anticancer Drug Screen. Data for tumor model P388 Leukemia (intraperitoneal) in CD2F1 (CDF1) mice
Conditions: endpoint: median survival time, higher = longer survival
Summary of the method: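 Mice carrying the transplanted tumor received test compound or vehicle. Survival was recorded in each group, and the value is the treated-group measurement divided by that of the vehicle-treated control group.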

[1] = dose: 15.0 mg/kg/injection, schedule: Q01DX005 (ip), vehicle: saline with Tween-80
[2] = dose: 30.0 mg/kg/injection, schedule: Q01DX005 (ip), vehicle: saline with Tween-80
[3] = dose: 50.0 mg/kg/injection, schedule: Q01DX005 (ip), vehicle: saline with Tween-80
[4] = dose: 100.0 mg/kg/injection, schedule: Q01DX005 (ip), vehicle: saline with Tween-80
[5] = dose: 200.0 mg/kg/injection, schedule: Q01DX005 (ip), vehicle: saline with Tween-80
[6] = dose: 50.0 mg/kg/injection, schedule: Q01DX005 (ip), vehicle: Klucel (hydroxypropylcellulose) (HPC)
[7] = dose: 100.0 mg/kg/injection, schedule: Q01DX005 (ip), vehicle: Klucel (hydroxypropylcellulose) (HPC)
[8] = dose: 200.0 mg/kg/injection, schedule: Q01DX005 (ip), vehicle: Klucel (hydroxypropylcellulose) (HPC)
[9] = dose: 12.5 mg/kg/injection, schedule: Q01DX005 (ip), vehicle: saline with Tween-80
[10] = dose: 25.0 mg/kg/injection, schedule: Q01DX005 (ip), vehicle: saline with Tween-80

With `CN(c1ccccc1)c1cc2c(cc1[N+](=O)[O-])no[n+]2[O-]` as the compound, how does the T/C (dose: 7.5 mg/kg/injection, schedule: Q01DX009 (ip), vehicle: saline) read?
Its T/C is 100 % of control and 86 % of control and 97 % of control.

And the T/C (dose: 15.0 mg/kg/injection, schedule: Q01DX009 (ip), vehicle: saline)?
The T/C was 107 % of control and 94 % of control.

What about the T/C (dose: 30.0 mg/kg/injection, schedule: Q01DX009 (ip), vehicle: saline) of the same compound?
The T/C was 105 % of control and 95 % of control.

What about the T/C (dose: 60.0 mg/kg/injection, schedule: Q01DX009 (ip), vehicle: saline) of the same compound?
Its T/C is 100 % of control and 101 % of control and 92 % of control.

Which results are given for `COP(=O)(O)OC`?
T/C (dose: 200.0 mg/kg/injection, schedule: Q01DX001 (ip), vehicle: Klucel (hydroxypropylcellulose) (HPC)): 88 % of control; T/C (dose: 400.0 mg/kg/injection, schedule: Q01DX001 (ip), vehicle: Klucel (hydroxypropylcellulose) (HPC)): 100 % of control

For `COC(=O)C1=CN(CCc2ccc(O)cc2)C(=O)C2C1CC(O)C2C` (stereo not given), which T/C (dose: 7.5 mg/kg/injection, schedule: Q01DX005 (ip), vehicle: saline with Tween-80) is on record?
Its T/C is 99 % of control.

What about the T/C [1] of the same compound?
Its T/C is 93 % of control.

What about the T/C [2] of the same compound?
The T/C was 94 % of control.

Which results are given for `FC(F)(F)C1=C(C(F)(F)F)SP(Cl)(Cl)(c2ccccc2)S1`?
T/C (dose: 12.5 mg/kg/injection, schedule: Q04DX003 (ip), vehicle: saline with Tween-80): 105 % of control; T/C (dose: 25.0 mg/kg/injection, schedule: Q04DX003 (ip), vehicle: saline with Tween-80): 105 % of control; T/C (dose: 50.0 mg/kg/injection, schedule: Q04DX003 (ip), vehicle: saline with Tween-80): 105 % of control; T/C (dose: 75.0 mg/kg/injection, schedule: Q04DX003 (ip), vehicle: saline with Tween-80): 101 % of control

For `O=C1CN(CCN2CCOCC2)CC(=O)N2Cc3ccccc3CN12`, which T/C [3] is on record?
Its T/C is 108 % of control.

What about the T/C [4] of the same compound?
Its T/C is 98 % of control.

What about the T/C [5] of the same compound?
The T/C was 101 % of control.

For `CC1(C)C2C=CC(OC2=O)C1(C)NC(=O)OCc1ccccc1` (stereo not given), which T/C (dose: 50.0 mg/kg/injection, schedule: Q01DX009 (ip), vehicle: saline) is on record?
Its T/C is 96 % of control.

What about the T/C (dose: 100.0 mg/kg/injection, schedule: Q01DX009 (ip), vehicle: saline) of the same compound?
Its T/C is 98 % of control.

What about the T/C (dose: 200.0 mg/kg/injection, schedule: Q01DX009 (ip), vehicle: saline) of the same compound?
Its T/C is 99 % of control.

`COc1ccc(-c2cc(-c3ccccc3)[nH]c2-c2ccccc2)cc1` was tested. Which T/C (dose: 100.0 mg/kg/injection, schedule: Q04DX002 (ip), vehicle: saline) did it give?
Its T/C is 98 % of control.

And the T/C (dose: 200.0 mg/kg/injection, schedule: Q04DX002 (ip), vehicle: saline)?
Its T/C is 105 % of control.

What about the T/C (dose: 400.0 mg/kg/injection, schedule: Q04DX002 (ip), vehicle: saline) of the same compound?
Its T/C is 100 % of control.

Which results are given for `CC1C2c3ccccc3C(c3ccccc32)C1CO` (stereo not given)?
T/C [3]: 92 % of control; T/C [4]: 91 % of control; T/C [5]: 90 % of control

Which results are given for `Cc1ccc(C2NC(c3ccc(C)cc3)C3CCCC2C3O)cc1` (stereo not given)?
T/C (dose: 100.0 mg/kg/injection, schedule: Q04DX003 (ip), vehicle: saline): 100 % of control; T/C (dose: 200.0 mg/kg/injection, schedule: Q04DX003 (ip), vehicle: saline): 97 % of control; T/C (dose: 400.0 mg/kg/injection, schedule: Q04DX003 (ip), vehicle: saline): 95 % of control

Which T/C (dose: 12.5 mg/kg/injection, schedule: Q01DX009 (ip), vehicle: other) does the source give for `O=[N+]([O-])c1cc2c(cc1C=Nc1ccc(O)cc1)OCO2` here?
The T/C was 113 % of control.

What about the T/C (dose: 25.0 mg/kg/injection, schedule: Q01DX009 (ip), vehicle: other) of the same compound?
Its T/C is 117 % of control.

And the T/C (dose: 50.0 mg/kg/injection, schedule: Q01DX009 (ip), vehicle: other)?
Its T/C is 113 % of control.

And the T/C (dose: 100.0 mg/kg/injection, schedule: Q01DX009 (ip), vehicle: other)?
Its T/C is 96 % of control.

And the T/C (dose: 200.0 mg/kg/injection, schedule: Q01DX009 (ip), vehicle: other)?
The T/C was 110 % of control.

What about the T/C (dose: 400.0 mg/kg/injection, schedule: Q01DX009 (ip), vehicle: other) of the same compound?
The T/C was 113 % of control.

For `O=c1[nH]c2cc(Cl)ccc2nc1/C=C(\O)c1ccc(N2CCN(c3ccc(/C(O)=C/c4nc5ccc(Cl)cc5[nH]c4=O)cc3)CC2)cc1`, which T/C (dose: 60.0 mg/kg/injection, schedule: Q01DX005 (ip), vehicle: Klucel + Tween-80) is on record?
The T/C was 98 % of control.

And the T/C (dose: 120.0 mg/kg/injection, schedule: Q01DX005 (ip), vehicle: Klucel + Tween-80)?
Its T/C is 93 % of control.

What about the T/C (dose: 240.0 mg/kg/injection, schedule: Q01DX005 (ip), vehicle: Klucel + Tween-80) of the same compound?
The T/C was 86 % of control.

With `CC(C)C(=O)NCCCCCCN1CCCCC1` as the compound, how does the T/C (dose: 50.0 mg/kg/injection, schedule: Q01DX005 (ip), vehicle: saline) read?
Its T/C is 96 % of control.

What about the T/C (dose: 100.0 mg/kg/injection, schedule: Q01DX005 (ip), vehicle: saline) of the same compound?
The T/C was 100 % of control.

Which results are given for `CCCCCCC(=O)CC(SCC)c1c(Cl)cccc1Cl` (stereo not given)?
T/C (dose: 50.0 mg/kg/injection, schedule: Q01DX009 (ip), vehicle: saline with Tween-80): 89 % of control; T/C (dose: 100.0 mg/kg/injection, schedule: Q01DX009 (ip), vehicle: saline with Tween-80): 98 % of control; T/C (dose: 200.0 mg/kg/injection, schedule: Q01DX009 (ip), vehicle: saline with Tween-80): 100 % of control

Which results are given for `CC12C(=O)OC(=O)C1(O)C1c3ccccc3C2c2ccccc21` (stereo not given)?
T/C [6]: 101 % of control; T/C [7]: 101 % of control; T/C [8]: 101 % of control

Which results are given for `COc1ccc2c(C)cc(N/N=C\c3ccnc4ccccc34)nc2c1`?
T/C [6]: 91 % of control; T/C [7]: 92 % of control; T/C [8]: 90 % of control

Which T/C (dose: 12.5 mg/kg/injection, schedule: Q01DX009 (ip), vehicle: Klucel (hydroxypropylcellulose) (HPC)) does the source give for `CS(=O)(=O)OC1COCOC1C1OCOCC1OS(C)(=O)=O` (stereo not given) here?
Its T/C is 91 % of control.

And the T/C (dose: 25.0 mg/kg/injection, schedule: Q01DX009 (ip), vehicle: Klucel (hydroxypropylcellulose) (HPC))?
Its T/C is 92 % of control.

And the T/C (dose: 50.0 mg/kg/injection, schedule: Q01DX009 (ip), vehicle: Klucel (hydroxypropylcellulose) (HPC))?
The T/C was 95 % of control.

What about the T/C (dose: 200.0 mg/kg/injection, schedule: Q01DX009 (ip), vehicle: Klucel (hydroxypropylcellulose) (HPC)) of the same compound?
The T/C was 102 % of control.

Which T/C (dose: 0.75 mg/kg/injection, schedule: Q01DX009 (ip), vehicle: saline with Tween-80) does the source give for `[C-]#[N+]C1CCCCC1.[C-]#[N+]C1CCCCC1.[C-]#[N+]C1CCCCC1.[C-]#[N+]C1CCCCC1.[C-]#[N+]C1CCCCC1.[C-]#[N+]C1CCCCC1.[Mn]` here?
Its T/C is 155 % of control and 159 % of control.

How did the T/C (dose: 0.13 mg/kg/injection, schedule: Q01DX009 (ip), vehicle: Klucel (hydroxypropylcellulose) (HPC)) turn out when `C/C1=C/C2=CC(C)C[C@@H]2C(=O)[C@]2(C)C(=O)CC(C)(C)[C@H]2CC1=O` (stereo not given in full) was run?
The T/C was 100 % of control.

And the T/C (dose: 0.25 mg/kg/injection, schedule: Q01DX009 (ip), vehicle: Klucel (hydroxypropylcellulose) (HPC))?
The T/C was 103 % of control.

And the T/C (dose: 0.25 mg/kg/injection, schedule: Q01DX009 (ip), vehicle: saline with Tween-80)?
Its T/C is 99 % of control.

And the T/C (dose: 0.5 mg/kg/injection, schedule: Q01DX009 (ip), vehicle: Klucel (hydroxypropylcellulose) (HPC))?
The T/C was 102 % of control.

What about the T/C (dose: 0.5 mg/kg/injection, schedule: Q01DX009 (ip), vehicle: saline with Tween-80) of the same compound?
The T/C was 108 % of control.

What about the T/C (dose: 1.0 mg/kg/injection, schedule: Q01DX009 (ip), vehicle: Klucel (hydroxypropylcellulose) (HPC)) of the same compound?
The T/C was 106 % of control.

What about the T/C (dose: 1.0 mg/kg/injection, schedule: Q01DX009 (ip), vehicle: saline with Tween-80) of the same compound?
The T/C was 99 % of control.

What about the T/C (dose: 2.0 mg/kg/injection, schedule: Q01DX009 (ip), vehicle: saline with Tween-80) of the same compound?
Its T/C is 101 % of control.

What about the T/C (dose: 125.0 micrograms/kg/injection, schedule: Q01DX009 (ip), vehicle: saline + alcohol) of the same compound?
Its T/C is 105 % of control.

What about the T/C (dose: 250.0 micrograms/kg/injection, schedule: Q01DX009 (ip), vehicle: saline + alcohol) of the same compound?
The T/C was 103 % of control.

What about the T/C (dose: 500.0 micrograms/kg/injection, schedule: Q01DX009 (ip), vehicle: saline + alcohol) of the same compound?
The T/C was 112 % of control.

What about the T/C (dose: 1000.0 micrograms/kg/injection, schedule: Q01DX009 (ip), vehicle: saline + alcohol) of the same compound?
Its T/C is 107 % of control.

What about the T/C (dose: 2000.0 micrograms/kg/injection, schedule: Q01DX009 (ip), vehicle: saline + alcohol) of the same compound?
The T/C was 105 % of control.

For `O=C(Cc1cccc(CC(=O)c2ccccc2)n1)c1ccccc1`, which T/C [1] is on record?
Its T/C is 108 % of control.

And the T/C [2]?
Its T/C is 92 % of control.

What about the T/C (dose: 60.0 mg/kg/injection, schedule: Q01DX005 (ip), vehicle: saline with Tween-80) of the same compound?
The T/C was 92 % of control and 93 % of control.

Which T/C (dose: 6.25 mg/kg/injection, schedule: Q01DX005 (ip), vehicle: saline with Tween-80) does the source give for `NC(N)=N/N=C/c1c2ccccc2cc2ccccc12` here?
The T/C was 100 % of control and 101 % of control.

And the T/C [9]?
The T/C was 107 % of control and 109 % of control and 121 % of control.

What about the T/C [10] of the same compound?
Its T/C is 104 % of control and 113 % of control and 121 % of control.

With `Nc1nnc(CCC(=O)Nc2cccc(C(F)(F)F)c2)n1N` as the compound, how does the T/C [3] read?
Its T/C is 107 % of control.

And the T/C [4]?
The T/C was 105 % of control.

And the T/C [5]?
The T/C was 90 % of control.

What does the source list for `CCc1ccc2c(-c3ccccc3)c3ccccc3c(-c3ccccc3)c2c1`?
T/C [9]: 96 % of control; T/C [10]: 99 % of control; T/C [3]: 88 % of control and 90 % of control; T/C [4]: 90 % of control; T/C [5]: 88 % of control

Reference: PubChem BioAssay AID330 (DTP/NCI, 2004)
